According to paper PMC5853558, “De novo identification of lipid II binding lipopeptides with antibacterial activity against vancomycin-resistant bacteria” (Chemical Science, 2017):
Values after ≈ are worked out from the molar mass of the structure shown. *1 amine or outer side, *2 acyl side, *3 side chain or, on linkers, in order; H or OH if unused. Where a SMILES comes first, the peptide text is derived from it. Bridges are numbered along the chain shown (N, C = ends). Where no end group is shown, it is not given here. [ ]: non-standard residue; d: D form. The star is where a group is joined. TBMB = c1c(C[*:1])cc(C[*:3])cc1C[*:2]; NHtetradecyl = CCCCCCCCCCCCCCN*; NHDecyl = CCCCCCCCCCN*

Key:
[1] = tested on: M. luteus (NCTC2665); test: microbe, parasite or virus in culture; type: cell-based, Micrococcus luteus; conditions: for MIC M. luteus: Supplemental table S7, P8 with varying lipids, broth microdilution
How it was run: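 Dilution series of peptide in TSB, up to 512 µg/ml final (lipopeptides up to 64 µg/ml), DMSO 2% final. Mid-log inoculum suspension at 1 x 10^6 CFU/ml, equal volume per well. Incubation at the strain's growth temperature with shaking.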

[2] = tested on: B. subtilis (168); test: microbe, parasite or virus in culture; type: cell-based
Procedure: (§1) Section 4 Biological and biochemical experiments
(§2) 4.1 Minimum inhibitory concentration assay
(§3) MIC values were determined by using the broth microdilution method. Peptides were dissolved first in DMSO and diluted with broth so that the final peptide concentration was 1024 µg/ml and the DMSO concentration was 4%. Peptide serial dilutions were made in TSB in a polypropylene 96-wells plate using 50 µl volumes. An overnight culture of the organism of interest was diluted to and OD600 of 0.01 and grown until they reach 0.5. The culture was then diluted to 1 x 10^6 CFU/ml and 50 µl of this suspension was added to each well. The highest concentrations were then 512 µg/ml peptide and 2% DMSO. The plates were incubated at the preferred growth temperature of the organism that was used and 250 rpm. […] When […]
(§4) determining the MICs of the lipidated peptides, the lipopeptides were first dissolved in DMSO and diluted with TSB so that the peptide concentration was 128 µg/ml and the DMSO concentration was 4%. After inoculation the highest peptide concentration evaluated was 64 µg/ml and the DMSO concentration was 2%. A DMSO control was tested for each strain to ensure the DMSO did not affect the growth of the particular strain. […]

[3] = tested on: S. epidermidis (1587); test: microbe, parasite or virus in culture; type: cell-based
Procedure: as §1, §2, §3, §4

[4] = tested on: S. pyogenes (5448); test: microbe, parasite or virus in culture; type: cell-based
Procedure: as §1, §2, §3, §4

[5] = tested on: E. faecium (E980); test: microbe, parasite or virus in culture; type: cell-based, Enterococcus faecium
Procedure: as §1, §2, §3, §4

[6] = tested on: E. faecium (VRE0321); test: microbe, parasite or virus in culture; type: cell-based, Enterococcus faecium
Procedure: as §1, §2, §3, §4

[7] = tested on: E. faecium (VRE155); test: microbe, parasite or virus in culture; type: cell-based, Enterococcus faecium; conditions: for MIC VRE E155: Supplemental table S7, P8 with varying lipids, broth microdilution
Procedure: as §1, §2, §3, §4

[8] = tested on: E. faecium (VRE2297); test: microbe, parasite or virus in culture; type: cell-based, Enterococcus faecium
Procedure: as §1, §2, §3, §4

[9] = tested on: E. faecium (VRE7391); test: microbe, parasite or virus in culture; type: cell-based, Enterococcus faecium
Procedure: as §1, §2, §3, §4

[10] = tested on: Sheep blood; test: Hemolysis assay; type: cell-based; conditions: for Hemolysis 32 µg/ml (after 1 h): Supplemental table S7, sheep blood cells in PBS, 1 h at 37°C, absorption at 414 nm
Procedure: Sheep blood in Alsever’s solution (2 mL) was diluted with PBS (13 mL) and centrifuged (2,000 RPM, 5 min). The supernatant was discarded and the cells were washed with another 13 mL of PBS and centrifuged. Washing was continued until the supernatant was clear. After the final wash the supernatant was discarded and the packed cells were kept on ice. Serial dilutions of each peptide were made in 50 µl PBS with the highest tested concentration 64 µg/mL in PBS, 2%
DMSO. The packed cells (150 µL) were suspended in PBS (10 mL) and 50 µL of this suspension was added to each well. A well plate column containing 0.1% triton x-100 in DI water was used as the 100% lysis control and a second column with PBS (with 2% DMSO) served as the 0% lysis control. After incubation at 37°C for 1h the plates were centrifuged (2,000 RPM, 5 min) and 25 µL of the supernatant was added to 100 µL DI water in a flat-bottom 96-wells plate (polystyrene). […]

[11] = tested on: lipid II; test: Lipid II antagonization assay; type: cell-based, M. luteus; set-up: key to Result with antagonist Lipid II: +: antagonization of antibiotic activity; -: no antagonization of antibiotic activity; conditions: for Result with antagonist Lipid II: Supplemental table S10, peptide at 4x MIC, antagonist at 4 molar equivalents, M. luteus 1 x 10^6 CFU/ml, 16 h at 30°C, growth observed visually; for Effect of pre-incubation with lipid II on antibacterial activity: premixed with an excess of lipid II before addition of a live culture of M. luteus
Procedure: (§5) To assess the role of lipid II in the mode of action of the lipopeptides a lipid II antagonization assay was employed.[18],[33] This assay was performed by premixing P8-D-C10 or the optimized P8-D-(S6R, R15A)-C10 with an excess of lipid II prior to addition of a live culture of M. luteus. […] To probe the stereochemical aspects of lipid II recognition by the optimized P8-D-(S6R, R15A)-C10 lipopeptide we also prepared and tested the corresponding enantiomeric L-peptide species P8-L-(S6R, R15A)-C10. […] Given that lipid II is a chiral biomolecule we had expected the enantiomeric lipopeptides to have different activities based on the assumption that they would interact differently with lipid II. To further investigate this phenomenon we employed the same lipid II antagonization assay described above. […] To explain this observation we hypothesize that the two enantiomeric peptides interact primarily with the pyrophosphate moiety of lipid II and are therefore less influenced by the chiral elements present elsewhere in the lipid II molecule. The pyrophosphate group is known to be a binding site for many natural occurring lipid II binding peptides.[15],[16] […] To test the hypothesis that both the P8-D-(S6R, R15A)-C10 and P8-L-(S6R, R15A)-C10 lipopeptides interact with the pyrophosphate moiety we performed an additional antagonizaiton experiment using C55-PP.
as §1, §2, §3, §4
(§6) 4.4 Antagonization assays
(§7) Stock solutions of each peptide antibiotic were prepared so that their final concentration in the assay would be 4x MIC. Peptides were transferred to a 96 wells plate and lipid II or C15-P (farnesyl-phosphate) was added at 4 molar equivalents in a final volume of 50 µl. Each well received 50 µl of bacterial suspension (M. luteus) at 1 x 10^6 CFU/ml and the plates were incubated for 16 h at 250 rpm and 30°C. Growth was observed visually (see supplemental table S10 for results).

[12] = tested on: C55-PP; test: Antagonization assay with C55-PP; type: cell-based, M. luteus; set-up: key to Result with antagonist C55-PP: +: antagonization of antibiotic activity; -: no antagonization of antibiotic activity; conditions: Supplemental table S10; peptide at 4x MIC, M. luteus, 16 h at 30°C, growth observed visually
Procedure: as §5, §1, §2, §3, §4, §6, §7

[13] = tested on: C15-P (farnesyl-phosphate); test: Antagonization assay with C15-P (negative control); type: cell-based; set-up: key: +: antagonization of antibiotic activity; -: no antagonization of antibiotic activity; conditions: Supplemental table S10, peptide at 4x MIC, 4 molar equivalents, M. luteus, 16 h at 30°C, growth observed visually
Procedure: as §1, §2, §3, §4, §6, §7
Supplemental table S10. Lipid II antagonization assay results
Result with indicated antagonista
Antibiotic compound Lipid II C55-PP C15-Pb […]
a + = antagonization of antibiotic activity; - = no antagonization of antibiotic activity; b C -P was used as a negative […]
control (C15-P is a watersoluble analogue of the lipid II precursor undecaprenol phosphate).
4.6 Scanning Electron Microscopy
E. faecium E155 was inoculated at an OD600nm of 0.05 into 300 µL of cation adjusted TSB containing P8-D-(S6R, R15A)-C10 or nisin at (both a 2x MIC) along with 1% glucose and 1%
DMSO. An untreated culture was used as control. Following overnight incubation (ca. 16 hr) bacterial cells were fixed for 15 minutes with 1% (v/v) glutaraldehyde in phosphate buffered saline (PBS) at room temperature on poly-L-lysine covered glass slides (12 mm diameter). […]

[14] = footnote to Supplemental table S7; observation in words during MIC experiments
[15] = read-out: Kd for undecaprenyl pyrophosphate (C55-PP); cited from earlier work
[16] = Supplemental table S9, MIC values of Table 2 expressed in µM
[17] = Supplemental table S6, lipidated phage display hits, n.a. = not active, highest tested conc 64 µg/ml
[18] = Table 2, broth microdilution in TSB, 16 h, read visually, highest tested 64 µg/ml
[19] = Supplemental table S9, vancomycin-resistant isolate, MIC values of Table 2 expressed in µM
[20] = Table 2, vancomycin-resistant isolate from hospitalized patients, broth microdilution in TSB, 16 h, highest tested 64 µg/ml

Row | Molecule | MIC M. luteus [1] | MIC M. luteus (NCTC2665) [1, 16] | MIC B. subtilis (168) [2, 18] | MIC S. epidermidis (1587) [3, 18] | MIC S. pyogenes (5448) [4, 16] | MIC S. pyogenes (5448) [4, 18] | MIC E. faecium (E980) [5, 16] | MIC E. faecium (E980) [5, 18] | MIC E. faecium (VRE0321) [6, 19] | MIC E. faecium (VRE0321) [6, 20] | MIC VRE E155 [7] | MIC E. faecium (VRE155) [7, 19] | MIC E. faecium (VRE2297) [8, 20] | MIC E. faecium (VRE7391) [9, 19] | MIC E. faecium (VRE7391) [9, 20] | Hemolysis 32 µg/ml (after 1 h) [10] | Result with antagonist Lipid II [11] | Effect of pre-incubation with lipid II on antibacterial activity [11] | Result with antagonist C55-PP [12] | Result with antagonist C15-P [13] | other results
1 | CCCCCCCCCCNC(=O)CNC(=O)[C@H]1CSCc2cc3cc(c2)CSC[C@@H](NC(=O)[C@@H](CC(C)C)NC(=O)[C@@H](CC(C)C)NC(=O)[C@@H](CO)NC(=O)[C@@H](CCC(N)=O)NC(=O)[C@@H](CC(C)C)NC(=O)[C@@H](CC(C)C)NC(=O)[C@H](NC(=O)[C@@H](C)N)CSC3)C(=O)N2CCC[C@@H]2C(=O)N[C@H](Cc2ccc(O)cc2)C(=O)N[C@H](CO)C(=O)N[C@H]([C@H](C)O)C(=O)N[C@H](Cc2c[nH]cn2)C(=O)N[C@H](CCCNC(=N)N)C(=O)N1 [Peptide P8-D-C10] (H-[dA][dC][dL][dL][dQ][dS][dL][dL][dC][dP][dY][dS][dT][dH][dR][dC]G-NHDecyl; linker 2-9-16 via TBMB) | 4 µg/mL (≈ 1.89 µM) | 3.8 µM (≈ 8.05 µg/mL) | 8–16 μg mL^–1 | 64 μg mL^–1 | 7.6 µM (≈ 16.1 µg/mL) | 8 μg mL^–1 | 30.3 µM (≈ 64.2 µg/mL) | 32 μg mL^–1 | 3.8 µM (≈ 8.05 µg/mL) | 4 μg mL^–1 | 4 µg/mL (≈ 1.89 µM) | 3.8 µM | 8–16 μg mL^–1 | 7.6 µM (≈ 16.1 µg/mL) | 8 μg mL^–1 | 6% | + | antagonization of antibacterial activity | + | - | MIC B. subtilis [2, 17]: 8 to 16 µg/mL; Hemolysis ([10]; Supplemental table S9, 1 hour incubation at 37 °C, lipopeptides at 32 µg/mL): 6%
2 | CCCCCCCCCCCCCCNC(=O)CNC(=O)[C@H]1CSCc2cc3cc(c2)CSC[C@@H](NC(=O)[C@@H](CC(C)C)NC(=O)[C@@H](CC(C)C)NC(=O)[C@@H](CO)NC(=O)[C@@H](CCC(N)=O)NC(=O)[C@@H](CC(C)C)NC(=O)[C@@H](CC(C)C)NC(=O)[C@H](NC(=O)[C@@H](C)N)CSC3)C(=O)N2CCC[C@@H]2C(=O)N[C@H](Cc2ccc(O)cc2)C(=O)N[C@H](CO)C(=O)N[C@H]([C@H](C)O)C(=O)N[C@H](Cc2c[nH]cn2)C(=O)N[C@H](CCCNC(=N)N)C(=O)N1 [Peptide P8-D-C14] (H-[dA][dC][dL][dL][dQ][dS][dL][dL][dC][dP][dY][dS][dT][dH][dR][dC]G-NHtetradecyl; linker 2-9-16 via TBMB; N-terminus assumed) | 4 to 64 µg/mL |  |  |  |  |  |  |  |  |  | 4 to 64 µg/mL |  |  |  |  | 12% |  |  |  |  | solubility of the peptide [14]: poor
3 | Nisin (ITSISLCTPGCKTGALMGCNMKTATCHCSIHVSK; not fully specified (some residues, bridges); also: lantibiotic nisin-A: lanthionine rings and dehydro residues not placed; UniProt P13068 24-57, looked up) [reference compound] |  | < 0.3 µM | 4 μg mL^–1 | 4 μg mL^–1 | < 0.3 µM | <1 μg mL^–1 | 9.5 µM | 32 μg mL^–1 | 0.3 µM | 1 μg mL^–1 |  | < 0.3 µM | 8 μg mL^–1 | 0.6 µM | 2 μg mL^–1 |  | + | antagonization of antibacterial activity | + | - | MIC M. luteus (NCTC2665) ([1]; Table 2, broth microdilution in TSB, 16 h, read visually, highest tested 64 µg/ml, 2% DMSO): <1 μg mL^–1; MIC B. subtilis (168) [2, 16]: 1.2 µM; MIC S. epidermidis (1587) [3, 16]: 1.2 µM; MIC E. faecium (VRE155) [7, 17]: < 1 µg/mL; MIC E. faecium (VRE155) [7, 20]: <1 μg mL^–1; MIC E. faecium (VRE2297) [8, 19]: 2.4 µM; Kd [15]: 133 nM
